Source: patent US20120232062A1, “AZAINDAZOLES TO TREAT FLAVIVIRIDAE VIRUS INFECTION” (EIGER BIOPHARMACEUTICALS, INC., priority 2009, published 2012)
Like-named read-outs stand apart in the source and are kept apart here.

Test system: HCV genotype 1b
Experiment: HCV 1b replicon luciferase assay
Format: cell-based
Excerpt: A suitable 1b HCV RNA replicon assay uses the Huh7 cell line which contains an HCV 1b RNA replicon with a stable luciferase (LUC) reporter. This construct contains modifications that make the cell line more robust and provides stable LUC expression for antiviral screening. The LUC reporter is used as an indirect measure of HCV replication. The activity of the LUC reporter is directly proportional to HCV RNA levels and positive control antiviral compounds behave comparably using LUC endpoints. […]
Fresh growth medium is prepared just before use. The container used in the procedure is a 10 cm diameter culture dish. HCV replicon reporter cell lines are used. Prepare complete medium: add FBS and appropriate additives as described in “Culture Media”, below. Pre-warm the medium in a 37° C. thermostat water bath. Remove the dish from a 37° C. CO2 incubator. Check the cell name and complete medium and passage number marked on the dish. Aspirate the medium carefully and add 1 ml PBS to rinse the cells. Remove and discard the solution and add 1 ml of 0.25% Trypsin/0.02% EDTA. Rinse the cells with the added Trypsin/EDTA to ensure all the cells have been rinsed. Remove the Trypsin/EDTA with a vacuum pump and incubate at 37° C. for 3-5 minutes. Examine the cell morphology under an inverted microscope to confirm that a single cell suspension is clearly visible. Add 3 ml of complete medium to the dish and suspend the cell by gentle pipetting. Count the cell numbers with a hematometer. Adjust cell density to 100 k/ml by adding appropriate volume of the complete medium. Add 100 μl of cell suspension to each well of a 96-well white plate; the cell density is thus 10 k per well. Mark the plate with cell name, passage number, seeding density, date and the name of the operator. Place the 96-well assay plate in 37° C. 5% CO2 incubator for 24 hours.
Compounds are prepared or provided at 25 mM in 100% DMSO. This is the compound stock solution. The dilution procedure should be performed in a cell culture hood. Dispense the stock solution into the second column of a 96-well plate. Prepare 9-step (10 concentrations total), 5-fold serial dilutions by transferring 10 μA of the compound into the next well containing 40 μA of DMSO. Repeat for all compounds. Aspirate 2 μl of the above compound solution from each well and add into 198 μl complete media using a 12-channel pipetter to obtain the 10-fold concentration compound solution with 1% DMSO, mix well.
Remove the 96-well assay plate from the 37° C./5% CO2 incubator, examine the cell morphology under an inverted microscope. In a cell culture hood, add 10 μl of the 10× concentration compounds solution into each well on the 96-well assay plate. All compound's dose responses are done in duplicate. The starting final concentration of the compounds is 25 μM, and DMSO final concentration 0.1%. Mark the plate with compound code(s) and concentrations. Place the 96-well assay plate into CO2 incubator for 48 hours. Add 30 μl of Stead-Glo Luciferase System (Promega) reagent to each well and mix by gentle shaking on a plate shaker for 5 minutes to allow throughout cell lysis. Measure the luminescence with Envision (Perkin Elmer) with an integration time of 2 seconds. Record and analyze the data.
The cell culture media is DMEM complete: DMEM (Life Technologies #41965-039) supplemented with 10% FCS, 2 mM Glutamin (Life Technologies #25030-024), Penicillin (100 IU/ml)/Streptomycin (100 μg/ml) (Life Technologies #15140-114) and 1× nonessential amino acids (Life Technologies #11140-035). G418 (“Geneticin”, Life Technologies): concentrations are given as weight per volume of the original substance. Specific activity of a typical batch is ca. 700 μg/mg as stated by the manufacturer. […] Therefore each new batch of G418 should be tested individually e.g. in an electroporation experiment using different selection conditions (0.2-1 mg/ml).

[1] = Hepatitis C virus, 48 h, read-out: EC50 in the 48 hour 1b replicon assay, 48 hour
[2] = Hepatitis C virus, Huh-7, 48 h, Table 1, Huh7 HCV 1b replicon, luciferase reporter, 48 hours, read-out: 1b EC50

| Structure (SMILES) | EC50 [2] [µM] | further results |
| --- | --- | --- |
| Cn1nc(C(=O)NC2CCNCC2)c2ccc(N3CCCCCC3)nc21 [EBP697] |  | EC50 [1]: < 3 µM |
| CCC(CC)Oc1ccc2c(C(=O)NC3CCNCC3)n[nH]c2n1 [EBP726] |  | EC50 [1]: < 3 µM |
| CCC(CC)Oc1ccc2c(COCC3CCNCC3)nn(Cc3ccc(Cl)cc3)c2n1 [EBP756] |  | EC50 [1]: < 3 µM |
| Cc1ccc(C(=O)Nc2nn(C)c3nc(N4CCCCCC4)ccc23)s1 [EBP841] |  | EC50 [1]: < 3 µM |
| CC1CC(NCc2nn(C)c3nc(N4CCCCCC4)ccc23)CCN1 (centres unmarked) [EBP909] |  | EC50 [1]: < 3 µM |
| Cn1nc(C(=O)NC2CCN(CC3CCCCC3)CC2)c2ccc(N3CCCCCC3)nc21 [EBP987] |  | EC50 [1]: < 3 µM |
| Cn1nc(C(=O)NCc2cccs2)c2cc(NC3CCCCC3)cnc21 [EBP1147] |  | EC50 [1]: < 3 µM |
| Cn1nc(CCCN2CCCC2)c2ccc(N3CCCCCCC3)nc21 [EBP1171] |  | EC50 [1]: < 3 µM |
| O=C(Nc1n[nH]c2nc(N3CCCCCC3)ccc12)C1CCCNC1 (centres unmarked) [compound 681] | 8.5 |  |
| CC(C)CNc1ccc2c(C(=O)NC3CCCNC3)nn(C)c2n1 (centres unmarked) [compound 684] | 10 |  |
| CC(C)CN(C)c1ccc2c(C(=O)NC3CCCNC3)nn(C)c2n1 (centres unmarked) [compound 686] | 2.6 |  |
| CC(C)CNc1ccc2c(C(=O)NC3CCNCC3)nn(C)c2n1 [compound 688] | 4.9 |  |
| CC(C)CN(C)c1ccc2c(C(=O)NC3CCNCC3)nn(C)c2n1 [compound 690] | 1.2 |  |
| Cn1nc(C(=O)NC2CCCNC2)c2ccc(N3CCCCCC3)nc21 (centres unmarked) [compound 698] | 3.8 |  |
| Cn1nc(C(=O)NC2CCN(S(C)(=O)=O)CC2)c2ccc(N3CCCCCC3)nc21 [compound 699] | 3.8 |  |
| Cn1nc(C(=O)NC2CCCN(S(C)(=O)=O)C2)c2ccc(N3CCCCCC3)nc21 (centres unmarked) [compound 700] | 3.8 |  |
| O=C(NC1CCNCC1)c1nn(Cc2ccc(Cl)cc2)c2nc(N3CCCCCC3)ccc12 [compound 704] | 2.5 |  |
| O=C(NC1CCCNC1)c1nn(Cc2ccc(Cl)cc2)c2nc(N3CCCCCC3)ccc12 (centres unmarked) [compound 705] | 2.7 |  |
| O=C(N[C@H]1CCNC1)c1nn(Cc2ccc(Cl)cc2)c2nc(N3CCCCCC3)ccc12 [compound 707] | 3.3 |  |
| CC1CC(NC(=O)c2nn(Cc3ccc(Cl)cc3)c3nc(N4CCCCCC4)ccc23)CCN1 (centres unmarked) [compound 708] | 2.4 |  |
| O=C(NC1CCNCC1)c1nnc2n(Cc3ccc(Cl)cc3)c(N3CCCCCC3)ccc1-2 [compound 709] | 8.7 |  |
| O=C(NC1CCCNC1)c1nnc2n(Cc3ccc(Cl)cc3)c(N3CCCCCC3)ccc1-2 (centres unmarked) [compound 710] | 7.9 |  |

| Structure (SMILES) | EC50 [2] [µM] | further results |
| --- | --- | --- |
| O=C(NC1CCNC1)c1nnc2n(Cc3ccc(Cl)cc3)c(N3CCCCCC3)ccc1-2 (centres unmarked) [compound 712] | 8.2 |  |
| CC1CC(NC(=O)c2nnc3n(Cc4ccc(Cl)cc4)c(N4CCCCCC4)ccc2-3)CCN1 (centres unmarked) [compound 713] | 6.1 |  |
| CCC(CC)Oc1ccc2c(C(=O)NC3CCCNC3)n[nH]c2n1 (centres unmarked) [compound 725] | 7.6 |  |
| O=C(NC1CCCNC1)c1n[nH]c2nc(OC3CCCCC3)ccc12 (centres unmarked) [compound 728] | 8 |  |
| CC1CC(NC(=O)c2n[nH]c3nc(N4CCCCCC4)ccc23)CCN1 (centres unmarked) [compound 734] | 2.6 |  |
| O=C(/C=C/c1cccnc1)Nc1nn(Cc2ccc(Cl)cc2)c2nc(N3CCCCCC3)ccc12 [compound 747] | 9 |  |
| O=C(NC1CC2CCCC(C1)N2)c1nn(Cc2ccc(Cl)cc2)c2nc(N3CCCCCC3)ccc12 (centres unmarked) [compound 751] | 2 |  |
| Nc1nn(Cc2ccc(Cl)cc2)c2nc(N3CCCCCC3)ccc12 [compound 759] | 8.6 |  |
| Clc1ccc(Cn2nc(CNC3CCNCC3)c3ccc(N4CCCCCC4)nc32)cc1 [compound 762] | 2.9 |  |
| Clc1ccc(Cn2nc(CN3CCCC3)c3ccc(N4CCCCCC4)nc32)cc1 [compound 763] | 8.7 |  |
| CN(Cc1ccccc1)c1ccc2c(C(=O)NC3CCNCC3)n[nH]c2n1 [compound 777] | 2 |  |
| COC[C@@H]1CCCN1c1ccc2c(C(=O)NC3CCNCC3)n[nH]c2n1 [compound 778] | 17 |  |
| Cn1nc(NC(=O)c2ccncc2)c2ccc(N3CCCC3)nc21 [compound 788] | 9.5 |  |
| Cn1nc(CN2CCCC2CO)c2ccc(N3CCCCCC3)nc21 (centres unmarked) [compound 791] | 8.5 |  |
| CCC(CC)Oc1ccc2c(COCCN3CCCCC3)nn(Cc3ccc(Cl)cc3)c2n1 [compound 792] | 4.6 |  |
| CCC(CC)Oc1ccc2c(C(=O)NC3CCCNC3)nn(Cc3ccc(Cl)cc3)c2n1 (centres unmarked) [compound 794] | 2.8 |  |
| CCC(CC)Oc1ccc2c(C(=O)NC3CCNCC3)nn(Cc3ccc(Cl)cc3)c2n1 [compound 795] | 3.2 |  |
| Cn1nc(CNC2CCCNC2)c2ccc(N3CCCCCC3)nc21 (centres unmarked) [compound 811] | 2.9 |  |
| Cn1nc(CN2CCNCC2)c2ccc(N3CCCCCC3)nc21 [compound 812] | 4.6 |  |
| O=C(CC1CCNCC1)Nc1nn(Cc2ccc(Cl)cc2)c2nc(N3CCCC3)ccc12 [compound 813] | 6.8 |  |
| CCC(CC)Oc1ccc2c(C(=O)NC3CCCNC3)nn(C)c2n1 (centres unmarked) [compound 815] | 6.6 |  |
| CCC(CC)Oc1ccc2c(C(=O)NC3CCNCC3)nn(C)c2n1 [compound 816] | 2.4 |  |

| Structure (SMILES) | EC50 [2] [µM] | further results |
| --- | --- | --- |
| Cn1nc(C(=O)NC2CCNCC2)c2ccc(OC3CCCCC3)nc21 [compound 817] | 3.4 |  |
| Cn1nc(C(=O)N[C@H]2CCNC2)c2ccc(N3CCCCCC3)nc21 [compound 822] | 4.3 |  |
| Cn1nc(C(=O)N2CCNCC2)c2ccc(N3CCCCCC3)nc21 [compound 823] | 7.6 |  |
| Cn1nc(C(=O)Nc2cccc(S(N)(=O)=O)c2)c2ccc(N3CCCCCC3)nc21 [compound 824] | 3.5 |  |
| Cn1nc(C(=O)Nc2cc[nH]n2)c2ccc(N3CCCCCC3)nc21 [compound 827] | 3.2 |  |
| Cn1nc(C(=O)N2CCC(N)CC2)c2ccc(N3CCCCCC3)nc21 [compound 829] | 8.7 |  |
| Cn1nc(C(=O)NCc2ccccc2)c2ccc(N3CCCCCC3)nc21 [compound 830] | 7.3 |  |
| Cn1nc(C(=O)NC2CC3CCCC(C2)N3)c2ccc(N3CCCCCC3)nc21 (centres unmarked) [compound 831] |  | EC50 (Table 1, Huh7 HCV 1b replicon, luciferase reporter, 48 hours, read-out: 1b EC50): 2.7 µM |
| Cn1nc(NC(=O)c2cccnc2Cl)c2ccc(N3CCCCCC3)nc21 [compound 832] | 3.3 |  |
| Cn1nc(NC(=O)c2ccncc2Cl)c2ccc(N3CCCCCC3)nc21 [compound 833] | 2.9 |  |
| Cn1nc(NC(=O)C2CCCCC2)c2ccc(N3CCCCCC3)nc21 [compound 835] | 2.4 |  |
| Cn1nc(NC(=O)c2ccccc2C(F)(F)F)c2ccc(N3CCCCCC3)nc21 [compound 836] | 4.1 |  |
| Cn1nc(NC(=O)c2cccnc2)c2ccc(N3CCCCCC3)nc21 [compound 838] | 3.8 |  |
| Cn1nc(NC(=O)c2ccncc2)c2ccc(N3CCCCCC3)nc21 [compound 839] | 2.5 |  |
| Cn1nc(NC(=O)CC2CCCNC2)c2ccc(N3CCCCCC3)nc21 (centres unmarked) [compound 843] | 8.3 |  |
| Cn1nc(NC(=O)[C@H]2CC[C@@H](N)CC2)c2ccc(N3CCCCCC3)nc21 [compound 844] | 6.6 |  |
| O=C(NC1CCNCC1)c1nn(CC2CCCCC2)c2nc(N3CCCCCC3)ccc12 [compound 845] | 2 |  |
| O=C(NCC1CCCNC1)c1nn(Cc2ccc(Cl)cc2)c2nc(N3CCCCCC3)ccc12 (centres unmarked) [compound 850] | 2.5 |  |
| CC(C)Cn1nc(C(=O)NC2CCNCC2)c2ccc(N3CCCCCC3)nc21 [compound 852] | 2.9 |  |
| O=C(NC1CCNCC1)c1nn(Cc2cccc(Cl)c2)c2nc(N3CCCCCC3)ccc12 [compound 854] | 7.2 |  |
| O=C(NC1CCNCC1)c1nn(CCc2ccc(Cl)cc2)c2nc(N3CCCCCC3)ccc12 [compound 855] | 3.7 |  |
